In US20230374007A1, “COMPOUNDS AND THEIR USE IN TREATING CANCER” (AstraZeneca AB, priority 2020, published 2023):

What was measured:
[1] = target: T1, cereblon (CRBN)—DNA damage protein 1 (DDB1) complex (Homo sapiens, UniProt Q96SW2); experiment: Cereblon HTRF binding assay
T1 construct: encoding amino acid residues 1 to 442 (Uniprot Q96SW2); hexahistidine (N); thrombin cleavage site (N); made in house; host or cells: Sf9 insect cells (baculovirus co-infection)
Procedure, shortened: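 Biotinylated His-tagged CRBN-DDB1 (0.2 nM, baculovirus-expressed) was combined with 0.2 nM terbium cryptate streptavidin and 2 nM Cy5-lenalidomide probe in 50 mM Tris-HCl pH 7.5, 100 mM NaCl, 1 mM TCEP, 500 μM EDTA, 0.01% Pluronic F127 for 2 h at r.t. HTRF ratio was normalized to plate controls. IC50 came from a Hill fit, given as mean of one or more experiments.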

[2] = target: T2, endogenous IKZF1 protein in NB4 cells (Homo sapiens, UniProt Q13422); experiment: Endogenous Ikaros 1 (IKZF1) degradation assay (SDS-PAGE); assay type: cell-based; conditions: 1 μM and 10 μM, 20 h of treatment
T2 construct: the endogenous IKZF1 protein; endogenous in cells; host or cells: NB4
T2 sequence (Q13422 whole entry): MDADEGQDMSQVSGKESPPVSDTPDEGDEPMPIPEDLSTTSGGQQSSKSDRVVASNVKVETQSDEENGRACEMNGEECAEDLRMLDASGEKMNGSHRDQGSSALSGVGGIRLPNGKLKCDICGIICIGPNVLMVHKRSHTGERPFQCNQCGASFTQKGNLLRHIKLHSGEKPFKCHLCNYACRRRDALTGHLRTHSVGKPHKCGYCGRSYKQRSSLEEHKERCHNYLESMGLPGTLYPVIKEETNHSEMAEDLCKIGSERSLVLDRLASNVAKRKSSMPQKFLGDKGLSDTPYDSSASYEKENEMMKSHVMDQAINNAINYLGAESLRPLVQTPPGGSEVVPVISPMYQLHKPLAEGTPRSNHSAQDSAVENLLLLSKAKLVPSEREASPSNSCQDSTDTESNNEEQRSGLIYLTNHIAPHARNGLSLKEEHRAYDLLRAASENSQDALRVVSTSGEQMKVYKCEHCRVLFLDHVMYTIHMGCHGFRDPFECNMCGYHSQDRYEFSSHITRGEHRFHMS

[3] = target: T3, endogenous SALL4 protein in Kelly cells (Homo sapiens, UniProt Q9UJQ4); experiment: Endogenous SALL4 degradation assay (SDS-PAGE); assay type: cell-based; conditions: 10 μM, 20 h of treatment
T3 construct: the endogenous SALL4 protein; endogenous in cells; host or cells: Kelly
T3 sequence (Q9UJQ4 whole entry): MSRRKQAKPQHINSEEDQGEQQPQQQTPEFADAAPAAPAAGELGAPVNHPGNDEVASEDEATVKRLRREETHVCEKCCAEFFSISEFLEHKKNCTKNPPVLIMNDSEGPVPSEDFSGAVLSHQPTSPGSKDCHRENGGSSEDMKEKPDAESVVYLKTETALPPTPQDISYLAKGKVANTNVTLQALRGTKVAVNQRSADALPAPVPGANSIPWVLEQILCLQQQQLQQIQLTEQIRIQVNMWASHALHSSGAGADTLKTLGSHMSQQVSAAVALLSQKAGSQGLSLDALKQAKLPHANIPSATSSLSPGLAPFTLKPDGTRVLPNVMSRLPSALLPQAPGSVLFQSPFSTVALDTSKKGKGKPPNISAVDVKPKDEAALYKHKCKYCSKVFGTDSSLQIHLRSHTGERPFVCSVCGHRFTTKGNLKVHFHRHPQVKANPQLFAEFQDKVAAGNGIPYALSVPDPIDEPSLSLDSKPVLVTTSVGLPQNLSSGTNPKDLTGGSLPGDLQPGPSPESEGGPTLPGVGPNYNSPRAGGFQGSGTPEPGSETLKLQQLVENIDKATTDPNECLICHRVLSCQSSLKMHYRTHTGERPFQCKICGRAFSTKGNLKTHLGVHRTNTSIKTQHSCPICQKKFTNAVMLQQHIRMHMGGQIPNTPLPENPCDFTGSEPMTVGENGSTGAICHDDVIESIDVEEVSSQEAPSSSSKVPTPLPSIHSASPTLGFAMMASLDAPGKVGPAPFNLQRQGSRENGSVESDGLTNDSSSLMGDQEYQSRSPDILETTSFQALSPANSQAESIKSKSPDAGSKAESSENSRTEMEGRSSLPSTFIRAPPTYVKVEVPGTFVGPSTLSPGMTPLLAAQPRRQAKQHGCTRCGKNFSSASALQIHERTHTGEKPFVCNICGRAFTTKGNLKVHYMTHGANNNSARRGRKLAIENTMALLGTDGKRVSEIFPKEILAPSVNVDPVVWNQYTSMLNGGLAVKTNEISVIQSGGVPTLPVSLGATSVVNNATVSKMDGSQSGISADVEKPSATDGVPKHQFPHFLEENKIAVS

[4] = target: T4, BRD4 tagged to a HiBiT tag in HEK 293 cells (Homo sapiens, UniProt O60885); experiment: HiBiT degradation assay; assay type: cell-based; conditions: for DC50: BRD4 degradation, HiBiT-BRD4 HEK 293 cells, 18 h; for Dmax: HEK293
T4 construct: at the N-terminus of endogenous BRD4; endogenous in cells
Method: Determination of PROTAC potency was determined in HEK 293 cells expressing BRD4 tagged to a HiBiT tag. To generate those cells, HiBiT tag (aminoacid sequence: […]) was inserted, via CRISPR CAS9 knock-in, at the N-terminus of endogenous BRD4.
To measure success of knock-in the cells were then tested for their level of luminescence. Finally a stable pool was generated from them. In a typical experiment, 14×10^3 cells are seed in the wells of a 384 well plate (white flat bottom, tissue culture ready, corning 781080) in 40 μL of culture medium (DMEM, 10% FBS and 2 mM Gln). Immediately after seeding, PROTAC compounds, diluted in DMSO solution, are added to the wells via ECHO 555 acoustic dispenser at the appropriate concentration. DMSO is used as a not active control and as normalization. In each plate a series of compounds of known DC50 are included as quality control. The 384 well plate is placed in an incubator at 37° C. and 5% CO2 for 18 h. At the end of the incubation period plates are removed from the incubator and the medium is replaced with 10 μL of PBS and 10 μL of complete NanoGlo HiBiT solution (Promega N3040, consisting of 9.7 μL of Lysis buffer, with 0.1 μL of LgBiT protein and 0.2 μL of nanoluciferase substrate). After 15 minutes of incubation at r.t., the luciferase activity of the plate is recorded in a luminometer. dBET6 (MCE® Cat. No.: HY-112588) was used for normalization when calculating Dmax.

[5] = target: T5, human BRD4 (amino acid residues 42 to 169) (Homo sapiens, UniProt O60885); experiment: BRD4 surface plasmon resonance (SPR) assay; assay type: binding; conditions: biotinylated BRD4, 25° C., read-out: BRD4 Affinity Kd
T5 construct: encoding amino acid residues 42 to 169 (Uniprot 060885) of human BRD4; hexahistidine (N, cleaved yes); TEV cleavage site (N, cleaved yes); made in house; host or cells: E. coli BL21 Gold (DE3)

T1 sequence (Q96SW2 with tags, fused parts or gaps): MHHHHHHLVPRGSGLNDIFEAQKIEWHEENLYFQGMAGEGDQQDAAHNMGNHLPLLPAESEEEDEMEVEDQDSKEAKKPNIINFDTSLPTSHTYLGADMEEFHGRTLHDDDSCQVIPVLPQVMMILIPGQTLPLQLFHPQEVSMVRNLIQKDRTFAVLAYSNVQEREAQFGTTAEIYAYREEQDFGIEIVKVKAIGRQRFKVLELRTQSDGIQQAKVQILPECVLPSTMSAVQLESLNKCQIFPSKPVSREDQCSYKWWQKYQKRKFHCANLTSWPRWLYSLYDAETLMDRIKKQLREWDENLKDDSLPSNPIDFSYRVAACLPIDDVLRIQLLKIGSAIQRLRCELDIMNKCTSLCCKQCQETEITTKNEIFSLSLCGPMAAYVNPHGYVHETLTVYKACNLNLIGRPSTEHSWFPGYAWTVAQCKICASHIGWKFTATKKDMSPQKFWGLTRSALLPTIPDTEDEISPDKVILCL

Row | Structure (SMILES) | IC50 [1] [nM] | IKZF1 degradation [2] | SALL4 degradation [3] | DC50 [4] [nM] | Dmax [4] [%] | Kd [5] [nM]
1 | O=C1CCN(c2cncc3[nH]ccc23)C(=O)N1 [Example 17, 1-(1H-Pyrrolo[2,3-c]pyridin-4-yl)dihydropyrimidine-2,4 (1H,3H)-dione] | 206 | no observable/meaningful IKZF1 degradation | – | – | – | –
2 | CN1CCCc2ccc(N3CCC(=O)NC3=O)cc21 [Example 33, 1-(1-Methyl-1,2,3,4-tetrahydroquinolin-7-yl)dihydropyrimidine-2,4 (1H,3H)-dione] | 762 | no observable/meaningful IKZF1 degradation | no observable/meaningful SALL4 degradation | – | – | –
3 | O=C1CCN(c2ccc3cnoc3c2)C(=O)N1 [Example 39, 1-(Benzo[d]isoxazol-6-yl)dihydropyrimidine-2,4 (1H,3H)-dione] | 82 | no observable/meaningful IKZF1 degradation | – | – | – | –
4 | O=C1CCN(c2cnc3cc[nH]c3c2)C(=O)N1 [Example 40, 1-(1H-Pyrrolo[3,2-b]pyridin-6-yl)dihydropyrimidine-2,4 (1H,3H)-dione] | 186 | no observable/meaningful IKZF1 degradation | – | – | – | –
5 | O=C1CCN(c2ccc3cc[nH]c3c2)C(=O)N1 [Example 55, 1-(1H-Indol-6-yl)dihydropyrimidine-2,4 (1H,3H)-dione] | 220 | no observable/meaningful IKZF1 degradation | no observable/meaningful SALL4 degradation | – | – | –
6 | Cn1ccc2ccc(N3CCC(=O)NC3=O)cc21 [Example 59, 1-(1-Methyl-1H-indol-6-yl)dihydropyrimidine-2,4 (1H,3H)-dione] | 329 | – | no observable/meaningful SALL4 degradation | – | – | –
7 | Cc1sc2c(c1C)C(c1ccc(Cl)cc1)=N[C@@H](CC(=O)NCCNC(=O)Cc1c[nH]c3cc(N4CCC(=O)NC4=O)ccc13)c1nnc(C)n1-2 [Example 127, (S)-2-(4-(4-Chlorophenyl)-2,3,9-trimethyl-6H-thieno[3,2-f][1,2,4]triazolo[4,3-a][1,4]-diazepin-6-yl)-N-(2-(2-(6-(2,4-dioxotetrahydropyrimidin-1 (2H)-yl)-1H-indol-3-yl)acetamido)ethyl)-acetamide] | – | – | – | 198 | 97.2 | 13
8 | Cc1sc2c(c1C)C(c1ccc(Cl)cc1)=N[C@@H](CC(=O)NCCOCCOCCNC(=O)Cc1c[nH]c3cc(N4CCC(=O)NC4=O)ccc13)c1nnc(C)n1-2 [Example 128, (S)-2-(4-(4-Chlorophenyl)-2,3,9-trimethyl-6H-thieno[3,2-f][1,2,4]triazolo[4,3-a][1,4]-diazepin-6-yl)-N-(2-(2-(2-(2-(6-(2,4-dioxotetrahydropyrimidin-1 (2H)-yl)-1H-indol-3-yl)acetamido)-ethoxy)ethoxy)ethyl)acetamide] | – | – | – | 1140 | 73.1 | 19
9 | Cc1sc2c(c1C)C(c1ccc(Cl)cc1)=N[C@@H](CC(=O)NCCOCCOCCOCCOCCOCCOCCNC(=O)Cc1c[nH]c3cc(N4CCC(=O)NC4=O)ccc13)c1nnc(C)n1-2 [Example 129, (S)-2-(4-(4-Chlorophenyl)-2,3,9-trimethyl-6H-thieno[3,2-f][1,2,4]triazolo[4,3-a][1,4]-diazepin-6-yl)-N-(1-(6-(2,4-dioxotetrahydropyrimidin-1 (2H)-yl)-1H-indol-3-yl)-2-oxo-6,9,12,15,18,21-hexaoxa-3-azatricosan-23-yl)acetamide] | – | – | – | 970 | 111 | 30
10 | N#Cc1ncc(N2CCC(=O)NC2=O)c2cc[nH]c12 [Example 135, 4-(2,4-dioxotetrahydropyrimidin-1 (2H)-yl)-1H-pyrrolo[2,3-c]pyridine-7-carbonitrile] | 594 | – | – | – | – | –
11 | Nc1cccc2c1CN(C1CCC(=O)NC1=O)C2=O (centres unmarked) [lenalidomide, reference compound] | – | degradation of IKZF1 to an undetected level | – | – | – | –
12 | O=C1CCC(N2C(=O)c3ccccc3C2=O)C(=O)N1 (centres unmarked) [thalidomide, reference compound] | – | – | degradation of SALL4 to an undetected level | – | – | –
